Entries after “also recorded” stand apart in the source; their conditions may differ.
Key:
UMR-106 cells [1] = experiment: MTT cell viability assay in UMR 106-01 cultures; assay type: cell-based, Rat
Protocol: Cell Culture. UMR 106-01 cells were maintained and cultured at 37° C. and 5% carbon dioxide. Cells were seeded at a density of 1.0×10^5 cells/cm^2 in Growth Medium (Eagle's MEM supplemented with Earle's salts, 1% non-essential amino acids, 10 mM, HEPES, pH 7.2, and 10% fetal bovine serum). After 24 hours (h), the medium was exchanged with Growth Medium containing 0.5% BSA. Sixty-four hours after plating, the culture medium was exchanged with Mineralization Media (Growth Medium containing either 0.1% BSA or 10% fetal bovine serum and 7 mM β-glycerol phosphate). Cultures were then incubated for an additional 24 hours, at the end of which (88 h), the cells were fixed in 70% ethanol and either subjected to MTT assay or extracted for protein. […] Alternatively, AEBSF was added at 44 h after plating; inhibitor was then removed and exchanged for Mineralization Media at 64 h and the amount of mineralization analyzed at 88 h.
MTT Assays Culture wells were washed with Eagle's MEM supplemented with Earle's salts and then incubated with a solution of 0.5 mg/ml MTT (3-(4,5-dimethylthiazol-2-yl)-2,5-diphenyl-2Htetrazolium bromide) in Eagle's MEM for 1-2 h at 37° C. Excess MTT solution was removed, the cells disrupted by mixing briefly with dimethylsulfoxide, and free, reduced dye was read at 490 or 540 nm in a spectrophotometer. […]

UMR-106 cells [2] = experiment: Mineral deposition (hydroxyapatite) within BMF in UMR 106-01 cultures, Alizarin red S quantitation; assay type: cell-based, Rat
Protocol: Cell Culture. UMR 106-01 cells were maintained and cultured at 37° C. and 5% carbon dioxide. Cells were seeded at a density of 1.0×10^5 cells/cm^2 in Growth Medium (Eagle's MEM supplemented with Earle's salts, 1% non-essential amino acids, 10 mM, HEPES, pH 7.2, and 10% fetal bovine serum). After 24 hours (h), the medium was exchanged with Growth Medium containing 0.5% BSA. Sixty-four hours after plating, the culture medium was exchanged with Mineralization Media (Growth Medium containing either 0.1% BSA or 10% fetal bovine serum and 7 mM β-glycerol phosphate). Cultures were then incubated for an additional 24 hours, at the end of which (88 h), the cells were fixed in 70% ethanol and either subjected to MTT assay or extracted for protein. In some experiments, protease inhibitors, including serine protease inhibitor AEBSF (4-(2-aminoethyl)-benzenesulfonylfluoride HCl), were added to cultures at 64 h after plating in Mineralization Media. Alternatively, AEBSF was added at 44 h after plating; inhibitor was then removed and exchanged for Mineralization Media at 64 h and the amount of mineralization analyzed at 88 h.
Quantitation of Mineralization. […] Bound dye was quantitated by extraction for 2 h at 4° C. in cold 10 mM HCl in 70% ethanol. The initial extract was collected and combined with a second extract and then read at 520 nm in a spectrophotometer. A standard curve for Alizarin red S dye was constructed for each analysis and the amount of bound dye/culture well was determined. […] Combined extracts were read at 520 nm in a spectrophotometer and the amount of bound dye/culture well was determined based on a standard curve.
To investigate the nature of the protease activity responsible for BAG-75/BSP cleavage and the relationship of cleavage with mineralization, a variety of protease inhibitors (Table 1) were tested in the UMR model. Individual inhibitors were added to confluent cultures at 64 hours after plating and the amount of hydroxyapatite deposited within BMF was quantitated 24 hours later. […]

BAG-75 and BSP = experiment: Uptake and proteolytic cleavage of BAG-75 and BSP in mineralizing UMR cultures (SDS-PAGE, staining, immunoblotting); assay type: cell-based, Rat
Protocol: Two Step Extraction of Cell Layer—2-Step Method. During the final 24 hour mineralization period, cells were grown in BSA-free, serum-free media conditions to reduce the amount of BSA in fractions used for 2-dimensional gel electrophoresis. Media was removed from each flask, heated at 95° C. for 5 minutes, dialyzed against 5% acetic acid, and lyophilized to dryness. Cell layers were first extracted without mixing for 2 h at 4° C. in 0.05 M Tris-acetate buffer (pH 7.5) containing 0.15 M NaCl, 0.05 M EDTA and 0.02% sodium azide; extracts were then inactivated at 95° C. for 5 minutes, dialyzed against 5% HAc, and lyophilized to dryness. The residual cell layer was next dislodged by scrapping and then extracted overnight at 4° C. by slow mixing with 0.1 M Trisacetate buffer (pH 7.5) containing 8 M urea, 2% (w/v) CHAPS and 0.02% sodium azide. Urea extracts were then homogenized and clarified by ultracentrifugation at 30,000 rpm for 1 h at 4° C. in an SW 50.1 rotor prior to use in 2-dimensional gel electrophoresis.
Western Blotting—Chemiluminescence Detection. […]
The effect of AEBSF on the protein distribution within mineralizing cultures was analyzed using cells grown until 64 hours, at which time they were fed with one of four different media conditions. […]

[3] = tested on: primary mouse calvarial cultures; experiment: MTT assay in primary mouse calvarial cultures; assay type: cell-based; conditions: 0.01 to 0.1 mM, scored on day 12
Protocol: Primary mouse calvaria were isolated from 3-5 day old mice and digested with trypsin/collagenase. Three sequential enzymatic digestions were pooled and spun down at 1500 rpm and the cells were resuspended in alpha-MEM containing 10% fetal bovine serum, 2 mM L-glutamine, 100 u/ml penicillin and 30 ug/ml gentamicin (Alpha-Growth Medium). Cells were plated directly at a density of 2-3×10^6 cells per T-75 cm2 flask and allowed to reach confluency (3-4 days). Confluent cultures were passaged by trypsinization and re-plating in 12- or 24-well culture dishes at a density of 20,000 cells per cm2. Cultures were subsequently re-fed at three-day intervals with Alpha-Growth Medium supplemented with 50 ug/ml ascorbic acid and 5 mM beta-glycerol phosphate. Beta-glycerol phosphate was omitted from some wells, which served as an unmineralized control. […] A second set was fixed on day 12 with 70% ethanol and processed for quantitative Alizarin red S staining as described for UMR cultures.
MTT Assays Culture wells were washed with Eagle's MEM supplemented with Earle's salts and then incubated with a solution of 0.5 mg/ml MTT (3-(4,5-dimethylthiazol-2-yl)-2,5-diphenyl-2Htetrazolium bromide) in Eagle's MEM for 1-2 h at 37° C. Excess MTT solution was removed, the cells disrupted by mixing briefly with dimethylsulfoxide, and free, reduced dye was read at 490 or 540 nm in a spectrophotometer.

[4] = tested on: procollagen C proteinase enhancer protein, 1,25-D3-MARRS, nascent polypeptide associated complex alpha chain; experiment: 2-D SDS-PAGE and mass spectrometry of cell layer EDTA extracts, fragmentation of mineralization related proteins; assay type: cell-based, Rat; conditions: +BGP versus +BGP with 0.04 mM AEBSF, serum-depleted
Protocol: Two Step Extraction of Cell Layer—2-Step Method. During the final 24 hour mineralization period, cells were grown in BSA-free, serum-free media conditions to reduce the amount of BSA in fractions used for 2-dimensional gel electrophoresis. Media was removed from each flask, heated at 95° C. for 5 minutes, dialyzed against 5% acetic acid, and lyophilized to dryness. Cell layers were first extracted without mixing for 2 h at 4° C. in 0.05 M Tris-acetate buffer (pH 7.5) containing 0.15 M NaCl, 0.05 M EDTA and 0.02% sodium azide; extracts were then inactivated at 95° C. for 5 minutes, dialyzed against 5% HAc, and lyophilized to dryness. […]
Mass Spectrometric Analyses. Protein bands were detected by staining with Coomassie blue G or with Sypro Ruby dye according to the manufacturer's instructions (Bio-Rad, Inc.). […] The data were analyzed using Mascot (Matrix Science, LTD), to find protein matches in the MSDB—20050227.fasta database. […]
AEBSF is a general serine protease inhibitor and the inhibition of mineralization by AEBSF could very well be due to the blockage of cleavage events of other necessary proteins. […] There were no major differences detected between the two growth conditions for either the urea extract or the media fraction. However, the differences detected between the two EDTA extracts were visually dramatic (FIG. 9). […]

Question: For `Cl.NCCc1ccc(S(=O)(=O)F)cc1` [AEBSF, 4-(2-aminoethyl)-benzenesulfonylfluoride HCl], which “concentration below which no loss of cell viability was noted (MTT)” value (UMR-106 cells [1]; rat, UMR 106-01 cells, pH 7.2) is on record?
Answer: below 1 mM

Question: And the “concentration above which toxic (MTT)” value (UMR-106 cells [1]; serum-sufficient or serum-depleted conditions)?
Answer: above 0.4 mM

Question: What about the “concentration capable of completely blocking mineral nucleation (as low as)” value (UMR-106 cells [2]; UMR cultures, 64-88 h after plating) of the same molecule?
Answer: 0.04 mM

Question: What about the “effect on mineral nucleation / mineralization in BMF” value (UMR-106 cells [2]; UMR system, added at 64 hours after plating, optimal recommended dosage) of the same molecule?
Answer: blocked mineral nucleation

Question: And the “difference in effectiveness, mineralization period (64-88 h) versus proliferation/differentiation period (44-64 h after plating)” value (UMR-106 cells [2]; assuming baseline mineral level of 150-170 nmoles/well, FIG. 4A)?
Answer: 10 fold

Question: What about the “uptake of BAG-75 and BSP (75 kDa glycophosphoprotein band) from media by the cell layer” value (BAG-75 and BSP; 0.1 mM AEBSF with 7 mM β-glycerol phosphate, 64-88 hours, HCl) of the same molecule?
Answer: blocked; also recorded: blocks uptake

Question: And the “proteolytic cleavage of BAG-75 and BSP to 45-50 kDa fragments” value (BAG-75 and BSP; UMR cultures with β-glycerol phosphate, two stage extraction, immunoblot)?
Answer: blocks uptake and cleavage

Question: What about the “change in viable cell number (MTT)” value [3] of the same molecule?
Answer: little change in viable cell number

Question: And the “cleavage of three additional proteins in EDTA extract” value [4]?
Answer: inhibited the cleavage

Reference: US20080299588A1, “Methods For Measuring Bone Formation” (The Curators of the University of Missouri A public …, priority 2007, published 2008)
